Assay results: patent US20240100023A1, “Compositions and Methods For Treating Spinal Cord Injuries” (priority 2020, published 2024)

Legend:
[1] = system: adult rats; assay: Phrenic burst amplitude after C2 spinal cord hemisection (C2Hx); format: in vivo, Rat; settings: two weeks after C2Hx, 15 mg/k, i.v.
Source text: In a preliminary examination of the therapeutic potential of ampakines for treating SCI, Wollman and coworkers (2020^16) reported that ampakines may stimulate phrenic activity after incomplete cervical spinal cord injury (SCI) in anesthetized rats. […] To competently address the role of ampakines in alleviating neural and motor function deficits in SCI subjects, Applicants present herein a range of findings, illustrating a diverse array of potent ampakine activities effective for SCI treatment. Among these findings, two low impact ampakines, CX717 and CX1739, potently stimulate diaphragm muscle activation and breathing in freely moving, non-anesthetized rats following SCI. ^16 Wollman L B, Streeter K A, Fusco Gonzalez-Rothi E J, Sandhu M S, Greer J J, Fuller D D. Exp Neural. 2020 December; 334:113 doi: 10.1016/j.expneurol.2020.113465. Epub 2020 September PMID: 32949571.
Exemplifying the efficacy of combining Ampakine SCI treatment with secondary therapeutic intervention, Applicants determined in a predictive animal model that pairing ampakine treatment with a single bout of acute hypoxia (5-min, arterial partial pressure of O2˜50 mmHg) beneficially impacts phrenic bursting, with some rats showing a large facilitation that exceeds the response compared to ampakine-only treated subjects. […]

[2] = system: hippocampal slices; settings: male, Sprague-Dawley, rat
[3] = system: Swiss Webster mice; assay: PTZ proconvulsant test; format: in vivo, Mouse; settings: 30 mg/kg or less p.o., 30 minutes before PTZ infusion
Procedure: Follow on studies of CX717 and 1739 are continuing, employing additional well-known models for SCI drug efficacy, coupled with a variety of ongoing safety studies. Preliminary safety studies already completed have included a range of toxicity studies focusing on critical convulsant risks widely observed for previously-studied ampakines. Using the well-known PTZ Proconvulsant test, non-GLP safety studies were conducted to examine proconvulsant activity of CX717. Swiss Webster mice (n=12/group) were dosed with CX717 (3, 10 or 30 mg/kg p.o.), vehicle (0.5% methocel p.o.) or a positive control, CGS8216 (10 mg/kg in 70% PEG300: 30% water i.p.). Thirty minutes later, the GABA-A antagonist, pentylenetetrazol (PTZ) was infused in the tail vein until tonic seizures were observed. The time at which the first clonic and tonic seizure was observed was noted and used to determine the dose of PTZ necessary to induce both clonic and tonic seizure.

[4] = system: Rat (Lister); assay: 5 Choice serial reaction time task; format: in vivo; settings: IP
Source text: Another useful animal model for evaluating ampakine activity is the Five Choice Serial Reaction Time Task in Rats. This assay requires rats to provide a single nose poke in response to a light stimulus presented in one of five locations within a 9-hole chamber. With a correct response a reward is delivered that the rat collects from the food magazine at the rear of the chamber. The withdrawal of its head from the food magazine initiates a short inter-trial interval followed by the presentation of the next randomly presented stimulus. An incorrect response results in a time out period (non-reinforcement) followed by the initiation of a new trial. Groups of 12 rats were used in this study, and all rats received all treatments using a randomized sequence. For evaluation using this model, CX1739 was selected as the exemplary low impact ampakine, administered at doses of 3 and 10 mg/kg i.p. 20 min prior to the start of the study.

[5] = system: non-selective alpha1 adrenergic receptor; assay: Alpha1 adrenergic receptor radioligand binding; settings: 100 μM

SMILES | Increase of contralateral (CL) phrenic burst amplitude [1] | Increase of ipsilateral (IL) phrenic burst amplitude [1] | Concentration at which seizure activity is seen in hippocampal slices [2] | Dose of PTZ required to elicit a seizure (proconvulsant activity) [3] | Minimum Effective Dose, 5 choice serial reaction time task [4] | Inhibition of reference ligand binding, non-selective alpha1 adrenergic receptor [5]
O=C(c1ccc2nonc2c1)N1CCOCC1 [CX717, 1-(benzofurazan-5-ylcarbonyl)morpholine] | 47±26 % BL | 61±46 % baseline, BL | > 600 µM | did not decrease the dose of PTZ required to elicit a seizure | – | –
CN(C(=O)c1ccc2nonc2c1)C1CCOCC1 [CX1739, N-Methyl-N-tetrahydro-2H-pyran-4-yl-[2,1,3]-benzoxadiazole-5-carboxamide] | – | – | – | – | 3 mg/kg | 67%
